From PubChem BioAssay (NCI)
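Method: 48-hour compound exposure of cells in 96-well plates, five concentrations, linear interpolation of endpoints. Here, GI50 denotes the concentration required for 50% inhibition of growth. At the TGI there is no net growth.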

Experiments:
Experiment in all cases: NCI tumour cell line growth inhibition, 48 h
SK-MEL-2 melanoma = tested on: SK-MEL-2 melanoma
LOX IMVI melanoma = tested on: LOX IMVI melanoma
SNB-75 CNS = tested on: SNB-75 CNS
SW-620 colon = tested on: SW-620 colon
COLO 205 colon = tested on: COLO 205 colon
786-0 renal = tested on: 786-0 renal
IGROV1 ovarian = tested on: IGROV1 ovarian
OVCAR-8 ovarian = tested on: OVCAR-8 ovarian
DU-145 prostate = tested on: DU-145 prostate
BT-549 breast = tested on: BT-549 breast

| SMILES | GI50 (SK-MEL-2 melanoma) [µM] | TGI (SK-MEL-2 melanoma) [µM] | GI50 (LOX IMVI melanoma) [µM] | TGI (LOX IMVI melanoma) [µM] | GI50 (SNB-75 CNS) [µM] | TGI (SNB-75 CNS) [µM] | GI50 (SW-620 colon) [µM] | TGI (SW-620 colon) [µM] | GI50 (COLO 205 colon) [µM] | TGI (COLO 205 colon) [µM] | GI50 (786-0 renal) [µM] | TGI (786-0 renal) [µM] | GI50 (IGROV1 ovarian) [µM] | TGI (IGROV1 ovarian) [µM] | GI50 (OVCAR-8 ovarian) [µM] | TGI (OVCAR-8 ovarian) [µM] | GI50 (DU-145 prostate) [µM] | TGI (DU-145 prostate) [µM] | GI50 (BT-549 breast) [µM] | TGI (BT-549 breast) [µM] |
| --- | --- | --- | --- | --- | --- | --- | --- | --- | --- | --- | --- | --- | --- | --- | --- | --- | --- | --- | --- | --- |
| C/C=C/C(=O)[O-].N.N.N.N.N.[Co+3].[O-][Cl+3]([O-])([O-])[O-] | > 100 | > 100 | > 100 | > 100 | 84.7 | > 100 | > 100 | > 100 | > 100 | > 100 | > 100 | > 100 | > 100 | > 100 | > 100 | > 100 | – | – | – | – |
| Cc1ccc(S(=O)(=O)c2ccsc2N)cc1 | > 100 | > 100 | > 100 | > 100 | – | – | > 100 | > 100 | > 100 | > 100 | > 100 | > 100 | > 100 | > 100 | > 100 | > 100 | > 100 | > 100 | > 100 | > 100 |
| C=C1C(=O)O[C@H]2[C@H]1CC/C(COC(=O)/C=C/c1c[nH]c3ccccc13)=C\CC[C@@]1(C)O[C@@H]21 | 0.208 | 0.412 | – | – | 0.17 | 0.428 | 0.181 | 0.446 | 0.225 | 0.541 | 0.221 | 0.555 | 0.225 | 0.484 | 0.191 | 0.421 | 0.393 | 1.43 | 0.175 | 0.384 |
| CNC(C)Cc1ccc(O)cc1 (centres undefined) | – | > 100 | – | > 100 | – | > 100 | – | > 100 | – | > 100 | – | > 100 | – | > 100 | – | > 100 | – | – | – | – |
| COC(=O)C1=C(c2cc(OC)c(OC)c(OC)c2)O[C@H](c2ccc3c(c2)OCO3)[C@H]1COC(C)=O | – | > 100 | – | > 100 | – | > 100 | – | > 100 | – | 26.3 | – | 78.4 | – | > 100 | – | > 100 | – | – | – | – |
| CC(C)=CCC/C(C)=C/[C@H]1OC(=O)CC12C[C@H](O)C=CC2=O (some centres undefined) | 1.74 | > 45.1 | – | – | 1.64 | 4.2 | 0.446 | > 100 | 1.1 | 3.72 | 0.727 | 1.93 | 1.65 | – | 0.791 | – | 0.529 | 2.18 | 0.802 | 3.17 |
| Cc1ccc(C)c2c1CCc1cc3ccccc3nc1-2 | – | > 100 | – | – | – | > 100 | – | > 100 | – | > 100 | – | > 100 | – | > 100 | – | > 100 | – | – | – | – |
| O=C(O)Cc1cc(=O)[nH]c2c1C(=O)CCC2 | – | > 100 | – | – | – | – | – | > 100 | – | > 100 | – | > 100 | – | > 100 | – | > 100 | – | – | – | – |
| CC(=O)Nc1cc2cc(NS(=O)(=O)c3cc(C(F)(F)F)cc(C(F)(F)F)c3)ccc2oc1=O | – | > 100 | – | > 100 | – | – | – | > 100 | – | > 100 | – | > 100 | – | > 100 | – | > 100 | – | > 100 | – | > 100 |
| Cc1cccc(O)c(=O)c1 | – | – | – | > 100 | – | > 100 | – | > 100 | – | 37.8 | – | > 100 | – | > 100 | – | > 100 | – | – | – | – |
| COC(=O)c1nn(C(=N)c2ccc(Cl)cc2)c2c1CCCCC2 | – | > 100 | – | > 100 | – | > 100 | – | > 100 | – | > 100 | – | > 100 | – | > 100 | – | – | – | – | – | – |
| COC(=O)/C(=N/O)C(C(=O)OC)C(=O)C(=O)Nc1c(Cl)cc(C)cc1S(=O)(=O)O (centres undefined) | – | > 100 | – | > 100 | – | > 100 | – | – | – | > 100 | – | > 100 | – | > 100 | – | > 100 | – | – | – | – |
| [N-]=[N+]=Nc1c(Br)c(=O)[nH]c(=O)n1COCCO | – | – | – | > 100 | – | > 100 | – | > 100 | – | > 100 | – | > 100 | – | > 100 | – | > 100 | – | – | – | – |
| Cc1cc(Cl)ccc1NC(=O)NC(C)(C)COC(=O)Nc1cccc(Cl)c1 | 8.08 | 34.1 | – | – | 11.3 | 47.1 | 7.45 | > 100 | 7.18 | 20.2 | 24.2 | > 100 | 11.1 | > 100 | 5.42 | 64.8 | 11.2 | > 100 | 21.4 | > 100 |
| CCCNc1cccc(-n2ncc3c(N/N=C/c4ccncc4)ncnc32)c1 | 1.49 | > 25 | – | – | 0.934 | > 19.4 | > 6.13 | > 25 | > 25 | > 25 | > 25 | > 25 | – | – | 11.7 | > 25 | > 25 | > 25 | > 8.4 | > 25 |
| CCCCN(CCCC)C(=O)C(=O)CC(=O)/C=C/c1ccccc1 | – | > 100 | – | > 100 | – | > 100 | – | > 100 | – | > 100 | – | > 100 | – | > 100 | – | > 100 | – | – | – | – |
| C[C@H]1CCC/C=C/[C@@H]2C[C@H](O)C[C@H]2[C@H](O)[C@@H](SC2OC(CO)C(O)C(O)C2O)CC(=O)O1 (some centres undefined) | > 100 | > 100 | 35.7 | > 100 | 53.2 | > 100 | > 100 | > 100 | 19.4 | 41.6 | 25.1 | 59.9 | > 100 | > 100 | 35 | > 100 | > 100 | > 100 | – | – |
| COc1cc2c3c(c1OC)Oc1ccc(cc1)CC1c4c(cc(OC)c(OC)c4Oc4ccc(cc4)CC3N(C)CC2)CCN1C (centres undefined) | – | 50.6 | – | 34.9 | – | 49.2 | – | 30.4 | – | 26.4 | – | 53 | – | 67.8 | – | 60 | – | – | – | – |
| Cc1cc(Cl)ccc1NC(=O)CCCC(=O)C(C(=O)c1ccccc1)c1ccccc1 (centres undefined) | – | > 100 | – | > 100 | – | – | – | – | – | > 100 | – | > 100 | – | > 100 | – | – | – | – | – | – |
| COc1cc(CC2CC(c3ccc4c(c3)OCO4)OC2=O)cc(OC)c1OC (centres undefined) | – | – | – | > 100 | – | > 100 | – | > 100 | – | > 100 | – | > 100 | – | – | – | > 100 | – | > 100 | – | – |
